Values of other authors as cited in US20250339514A1, “SINGLE-AND MULTI-EPITOPE PEPTIDE AND MRNA VACCINES TO GENERATE TOLEROGENIC EFFECTS FOR ALLERGIC AND AUTOIMMUNE DISEASE BY TARGETING LIVER SINUSOIDAL ENDOTHELIAL CELLS” (The Regents of the University of California, priority 2022, published 2025).
Like-named read-outs stand apart in the source and are kept apart here.

How the values were obtained:
[1] = tested on: class I MHC K, D, and L loci; conditions: cited from earlier work
[2] = tested on: T cell responses; design: Immunopositivity of predicted CTL epitope / Immunopositivity of MHC II peptide: scale not given here; conditions: cited from earlier work; for Immunopositivity of predicted CTL epitope: class I MHC peptides, Table 59; for Immunopositivity of MHC II peptide: MHC II peptides, Table 60
[3] = tested on: I-Ek; conditions: cited from earlier work; for Score (antigenic score predicted): MHC II H2-E^k
[4] = biological target: H2-A^k (Mus musculus, UniProt P01910+P06343); conditions: MHC II H2-A^k; cited from earlier work
Chain of H2-A^k (P01910 24-256): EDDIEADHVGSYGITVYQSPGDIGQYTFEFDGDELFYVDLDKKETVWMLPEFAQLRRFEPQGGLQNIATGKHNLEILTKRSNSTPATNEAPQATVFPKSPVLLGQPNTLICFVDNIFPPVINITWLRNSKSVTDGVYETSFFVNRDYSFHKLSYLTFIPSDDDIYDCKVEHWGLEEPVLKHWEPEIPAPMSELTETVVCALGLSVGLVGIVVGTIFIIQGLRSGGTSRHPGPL
Chain of H2-A^k (P06343 28-263): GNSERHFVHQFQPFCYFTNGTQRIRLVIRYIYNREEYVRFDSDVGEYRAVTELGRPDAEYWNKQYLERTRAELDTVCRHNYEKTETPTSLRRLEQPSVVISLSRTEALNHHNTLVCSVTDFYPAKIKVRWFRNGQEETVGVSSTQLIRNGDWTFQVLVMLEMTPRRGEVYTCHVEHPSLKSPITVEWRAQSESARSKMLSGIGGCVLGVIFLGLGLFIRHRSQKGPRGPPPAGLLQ

[5] = H2 locus D, haplotype b (9-mer)
[6] = H2 locus K, haplotype d (9-mer)
[7] = H2 locus K, haplotype k (9-mer)

For “SEQ ID NO: 1124 (TADVNTQGV; listed as Arachis hypogaea)”, the “BIM score predicted using the BIMAS program” value (“BIM score predicted” below) [1, 5] is given as 3.4, the “SYF score predicted using the SYFPEITHI program” value (“SYF score predicted” for short) [1, 5] is given as 23 and the “Immunopositivity of predicted CTL epitope” value [2] is given as “TADVNTQGV^e”.

In the case of “SEQ ID NO: 1133 (KYLGPFNGL; listed as Arachis hypogaea)”, the “BIM score predicted” value [1, 6] is listed as 6912, the “SYF score predicted” value [1, 6] is listed as 27 and the “Immunopositivity of predicted CTL epitope” value [2] is listed as “KYLGPFNGL^c”.

In the case of “SEQ ID NO: 1134 (EYGIVADNLD; listed as Arachis hypogaea)”, the “BIM score predicted” value [1, 6] is given as 2400, the “SYF score predicted” value [1, 6] is given as 23 and the “Immunopositivity of predicted CTL epitope” value [2] is given as “EYGIVADNL^d”.

For “SEQ ID NO: 1140 (LDRLMNPLI; listed as Arachis hypogaea)”, the “BIM score predicted” value [1, 7] is given as 100, the “SYF score predicted” value [1, 7] is given as 20 and the “Immunopositivity of predicted CTL epitope” value [2] is given as “LDRLMNPLI^e”.

In the case of “SEQ ID NO: 1141 (EEIKTTNPV; listed as Arachis hypogaea)”, the “BIM score predicted” value [1, 7] is listed as 100, the “SYF score predicted” value [1, 7] is listed as 20 and the “Immunopositivity of predicted CTL epitope” value [2] is listed as “EEIKTTNPV^e”.

In the case of “SEQ ID NO: 1151 (KYNHDIALL; listed as Arachis hypogaea)”, the “BIM score predicted” value [1, 6] is listed as 3456, the “SYF score predicted” value [1, 6] is listed as 24 and the “Immunopositivity of predicted CTL epitope” value [2] is listed as “KYNHDIALL^c”.

In the case of “SEQ ID NO: 1152 (GYVSGWGRVD; listed as Arachis hypogaea)”, the “BIM score predicted” value [1, 6] is listed as 1440, the “SYF score predicted” value [1, 6] is listed as 22 and the “Immunopositivity of predicted CTL epitope” value [2] is listed as “GYVSGWGRV^d”.

For “SEQ ID NO: 1160 (GSIVNEKWID; listed as Arachis hypogaea)”, the “BIM score predicted” value [1, 5] is listed as 936, the “SYF score predicted” value [1, 5] is listed as 26 and the “Immunopositivity of predicted CTL epitope” value [2] is listed as “GSIVNEKWI^d”.

For “SEQ ID NO: 1161 (LDHENANKI; listed as Arachis hypogaea)”, the “BIM score predicted” value [1, 5] is listed as 240, the “SYF score predicted” value [1, 5] is listed as 23 and the “Immunopositivity of predicted CTL epitope” value [2] is listed as “LDHENANKI^e”.

In the case of “SEQ ID NO: 1170 (QVSVEIEWELQKENS; listed as Arachis hypogaea)”, the “Score (antigenic score predicted)” value [3] is listed as 22 and the “Immunopositivity of MHC II peptide” value [2] is listed as “QVSVEIEWELQKENS^b”.

In the case of “SEQ ID NO: 1171 (GVLIFGKQSEKTNV; listed as Arachis hypogaea)”, the “Score (antigenic score predicted)” value [3] is listed as 22.

In the case of “SEQ ID NO: 1172 (TSADNNNSEYSWTGA; listed as Arachis hypogaea)”, the “Score (antigenic score predicted)” value [4] is listed as 24.

For “SEQ ID NO: 1173 (NGRDSLVNPGPAMAS; listed as Arachis hypogaea)”, the “Score (antigenic score predicted)” value [4] is listed as 24.

For “SEQ ID NO: 1174 (LEPLGLVEEGAKTAP; listed as Arachis hypogaea)”, the “Score (antigenic score predicted)” value [3] is given as 28 and the “Immunopositivity of MHC II peptide” value [2] is given as “LEPLGLVEEGAKTAP^b”.

In the case of “SEQ ID NO: 1175 (YKYLLGPFNGLDKGEP; listed as Arachis hypogaea)”, the “Score (antigenic score predicted)” value [3] is listed as 28 and the “Immunopositivity of MHC II peptide” value [2] is listed as “YKYLLGPINGUDKGEP^d”.

For “SEQ ID NO: 1176 (IVADNLQQQNTAPQI; listed as Arachis hypogaea)”, the “Score (antigenic score predicted)” value [4] is given as 26.

In the case of “SEQ ID NO: 1178 (NSYVTPICIADEKEYT; listed as Arachis hypogaea)”, the “Score (antigenic score predicted)” value [3] is listed as 24 and the “Immunopositivity of MHC II peptide” value [2] is listed as “NSYVTPICIADKEYT^c”.

In the case of “SEQ ID NO: 1179 (YTKVSRYVNWIEKEKT; listed as Arachis hypogaea)”, the “Score (antigenic score predicted)” value [3] is listed as 22.

In the case of “SEQ ID NO: 1180 (NKWCSCTEGYRLAE; listed as Arachis hypogaea)”, the “Score (antigenic score predicted)” value [3] is given as 22.

For “SEQ ID NO: 1181 (YNHDIALLELLEDEPLV; listed as Arachis hypogaea)”, the “Score (antigenic score predicted)” value [4] is listed as 24.

In the case of “SEQ ID NO: 1182 (CKDDINSYECWCPFG; listed as Arachis hypogaea)”, the “Score (antigenic score predicted)” value [4] is given as 18.

In the case of “SEQ ID NO: 1183 (QYVDGDQCESNPCLN; listed as Arachis hypogaea)”, the “Score (antigenic score predicted)” value [4] is given as 18.

In the case of “VPQYGYLTL [AAV2 capsid aa 170-178, reference compound]”, the “predicted binding to the H2-Ld locus” value ([1]; SYFPEITHI and BIMAS) is listed as “high-scoring”.

In the case of “YTKVSRYVNWIKEKT [hF.IX aa 444-460, reference compound]”, the SYFPEITHI score ([3]; I-Ek) is listed as 22.
